Experiments:
[1] = target: T1, vasopressin V2 receptor (Homo sapiens, UniProt P30518); test: In-clinic pharmacokinetic study: spot urine osmolality after twice daily lixivaptan; type: in vivo
T1 construct: Lixivaptan antagonizes the effects of vasopressin that are mediated by the V2 receptor; from tissue; host or cells: living human subjects (in vivo clinical studies); the receptor is the subjects' own and no tissue was isolated
Method: Subjects received lixivaptan at total daily doses of 100 mg, 200 mg, or 400 mg (administered as 50, 100, and 200 mg Q12H). […] There were to be approximately 20 subjects enrolled per dose level. An approximately equal number of males and females were enrolled at each dose level such that neither gender was represented by fewer than 8 subjects. The starting date for each cohort subjects was staggered by 7 days for logistical purposes. Screening evaluations were performed within 28 days prior to Day 1.
The following doses of lixivaptan were administered to subjects in this study: (a) Lixivaptan 100 mg, administered as 50 mg [1×50 mg capsule] every 12 hours×15 doses; (b) lixivaptan 200 mg, administered as 100 mg [2×50 mg capsules] every 12 hours×15 doses; and (c) Lixivaptan 400 mg, administered as 200 mg [4×50 mg capsules] every 12 hours×15 doses.
Prior to the morning doses of lixivaptan on Days 1 and 8, subjects fasted for approximately 10 hours prior to lixivaptan administration and 4 hours after lixivaptan administration. All other doses were administered under fasting conditions, either 2 hours before or 2 hours after meals. The study medication was administered with 240 milliliters (mL) room temperature water. Subjects were not to receive any oral fluids, other than those used to administer the dose, for 1 hour before and 1 hour after dose administration. Subjects remained sitting or semi-supine, except to void, for 6 hours following the first two doses. While in the clinic, the subjects refrained from strenuous physical activity.
Spot urine collections for urine osmolality determinations were obtained during the clinic stay and at the end of study (EOS).
Spot urine osmolality was evaluated at different times during the day.

[2] = target: T2, V2 receptor (Homo sapiens, UniProt P30518); test: Single 100 mg oral dose study in ESRD and normal renal function subjects: pharmacodynamics (urine osmolality, vasopressin, urine output); type: in vivo; design: Lixivaptan antagonizes the effects of vasopressin that are mediated by the V2 receptor; from tissue; host or cells: living human subjects (in vivo clinical studies); the receptor is the subjects' own and no tissue was isolated
Method: In this study, the PK of lixivaptan following a single 100 mg oral dose of lixivaptan was evaluated in subjects with end-stage renal disease (ESRD) and control subjects with normal renal function. Pharmacodynamic (PD) evaluations, including vasopressin concentration, serum sodium concentration, urine volume, and urine osmolality were assessed.

[3] = target: T2, V2 receptor; test: Ascending multiple-dose, safety and tolerance study in healthy adult male subjects
Method: Lixivaptan in healthy volunteers was tested in a randomized, double-blind, placebo-controlled, ascending multiple-dose, safety and tolerance clinical study in 98 healthy male subjects.

T2 sequence (P30518 whole entry): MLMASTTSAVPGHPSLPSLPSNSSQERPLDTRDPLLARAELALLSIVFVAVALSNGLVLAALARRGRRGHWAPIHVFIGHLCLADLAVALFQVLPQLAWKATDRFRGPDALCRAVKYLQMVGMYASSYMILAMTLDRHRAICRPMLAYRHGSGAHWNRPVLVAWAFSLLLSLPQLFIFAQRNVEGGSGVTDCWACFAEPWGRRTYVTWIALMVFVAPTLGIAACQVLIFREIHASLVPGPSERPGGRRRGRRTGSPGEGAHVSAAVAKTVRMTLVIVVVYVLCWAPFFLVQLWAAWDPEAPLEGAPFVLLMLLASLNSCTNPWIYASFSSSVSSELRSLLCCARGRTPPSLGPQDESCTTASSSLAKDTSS
T1 sequence (P30518 whole entry): as above

Cc1ccc(F)cc1C(=O)Nc1ccc(C(=O)N2Cc3cccn3Cc3ccccc32)c(Cl)c1 [Lixivaptan, 5-fluoro-2-methyl-N-[4-(5H-pyrrolo[2,1-C] [1,4]benzodiazepin-10(11H)-ylcarbonyl)-3-chlorophenyl]benzamide]
% of subjects with full 24 hour suppression of Uosm to 300 mOsm/kg or lower ([1]; 50 mg lixivaptan twice daily): approximately 16%
Urine Osmolality Mean ([1]; 100 mg as 50 mg Q12H, Day 1 Hour 1): 250.9 mOsm/kg
Urine Osmolality Mean ([1]; 100 mg as 50 mg Q12H, Day 1 Hour 2): 79.8 mOsm/kg
Urine Osmolality Mean ([1]; 100 mg as 50 mg Q12H, Day 1 Hour 4): 150.6 mOsm/kg
Urine Osmolality Mean ([1]; 100 mg as 50 mg Q12H, Day 1 Hour 12): 378.7 mOsm/kg
Urine Osmolality Mean ([1]; 100 mg as 50 mg Q12H, Day 8 Hour 0): 464.7 mOsm/kg
Urine Osmolality Mean ([1]; 100 mg as 50 mg Q12H, Day 8 Hour 1): 222.5 mOsm/kg
Urine Osmolality Mean ([1]; 100 mg as 50 mg Q12H, Day 8 Hour 2): 139.1 mOsm/kg
Urine Osmolality Mean ([1]; 100 mg as 50 mg Q12H, Day 8 Hour 4): 274.3 mOsm/kg
Urine Osmolality Mean ([1]; 100 mg as 50 mg Q12H, Day 8 Hour 12): 447.4 mOsm/kg
Urine Osmolality Mean ([1]; 100 mg as 50 mg Q12H, Day 9 Hour 24 after dosing): 564.7 mOsm/kg
Urine Osmolality Mean ([1]; 100 mg as 50 mg Q12H, EOS (end of study, Day 29)): 805.5 mOsm/kg
% of subjects with full 24 hour suppression of Uosm to 300 mOsm/kg or lower ([1]; 100 mg twice daily): approximately 46%
Urine Osmolality Mean ([1]; 200 mg as 100 mg Q12H, Day 1 Hour 1): 285.9 mOsm/kg
Urine Osmolality Mean ([1]; 200 mg as 100 mg Q12H, Day 1 Hour 2): 76.9 mOsm/kg
Urine Osmolality Mean ([1]; 200 mg as 100 mg Q12H, Day 1 Hour 4): 136.5 mOsm/kg
Urine Osmolality Mean ([1]; 200 mg as 100 mg Q12H, Day 1 Hour 12): 369.9 mOsm/kg
Urine Osmolality Mean ([1]; 200 mg as 100 mg Q12H, Day 8 Hour 0): 323.6 mOsm/kg
Urine Osmolality Mean ([1]; 200 mg as 100 mg Q12H, Day 8 Hour 1): 156.7 mOsm/kg
Urine Osmolality Mean ([1]; 200 mg as 100 mg Q12H, Day 8 Hour 2): 93.9 mOsm/kg
Urine Osmolality Mean ([1]; 200 mg as 100 mg Q12H, Day 8 Hour 4): 186.7 mOsm/kg
Urine Osmolality Mean ([1]; 200 mg as 100 mg Q12H, Day 8 Hour 12): 334.7 mOsm/kg
Urine Osmolality Mean ([1]; 200 mg as 100 mg Q12H, Day 9 Hour 24 after dosing): 465.9 mOsm/kg
Urine Osmolality Mean ([1]; 200 mg as 100 mg Q12H, EOS (end of study, Day 29)): 694.1 mOsm/kg
% of subjects with full 24 hour suppression of Uosm to 300 mOsm/kg or lower (% responders) ([1]; 200 mg twice daily): approximately 78%
Urine Osmolality Mean ([1]; 400 mg as 200 mg Q12H, Day 1 Hour 1): 237.4 mOsm/kg
Urine Osmolality Mean ([1]; 400 mg as 200 mg Q12H, Day 1 Hour 2): 74.5 mOsm/kg
Urine Osmolality Mean ([1]; 400 mg as 200 mg Q12H, Day 1 Hour 4): 91.0 mOsm/kg
Urine Osmolality Mean ([1]; 400 mg as 200 mg Q12H, Day 1 Hour 12): 294.1 mOsm/kg
Urine Osmolality Mean ([1]; 400 mg as 200 mg Q12H, Day 8 Hour 0): 231.0 mOsm/kg
Urine Osmolality Mean ([1]; 400 mg as 200 mg Q12H, Day 8 Hour 1): 106.9 mOsm/kg
Urine Osmolality Mean ([1]; 400 mg as 200 mg Q12H, Day 8 Hour 2): 82.3 mOsm/kg
Urine Osmolality Mean ([1]; 400 mg as 200 mg Q12H, Day 8 Hour 4): 139.1 mOsm/kg
Urine Osmolality Mean ([1]; 400 mg as 200 mg Q12H, Day 8 Hour 12): 219.5 mOsm/kg
Urine Osmolality Mean ([1]; 400 mg as 200 mg Q12H, Day 9 Hour 24 after dosing): 390.3 mOsm/kg
Urine Osmolality Mean ([1]; 400 mg as 200 mg Q12H, EOS (end of study, Day 29)): 704.8 mOsm/kg
time of mean maximal reduction of urine osmolality ([1]; after first dose on Day 1 and Day 8, regardless of the dose): 2 h
Urine Osmolality Mean ([1]; healthy subjects, 100 mg as 50 mg Q12H, Day 1 Hour 0 (baseline)): 587.8 mOsm/kg
Urine Osmolality Mean ([1]; healthy subjects, 200 mg as 100 mg Q12H, Day 1 Hour 0 (baseline)): 602.7 mOsm/kg
Urine Osmolality Mean ([1]; healthy subjects, 400 mg as 200 mg Q12H, Day 1 Hour 0 (baseline)): 600.1 mOsm/kg
Urine osmolality Change from baseline Mean ([2]; 0 to 2 hours postdose, ESRD): −109.0 mosmol/kg
Urine osmolality Observed Mean ([2]; 0 to 2 hours postdose, ESRD, single 100 mg oral dose): 216.5 mosmol/kg
Urine osmolality Change from baseline Mean ([2]; 0 to 2 hours postdose, Normal): −398.5 mosmol/kg
Urine osmolality Observed Mean ([2]; 0 to 2 hours postdose, Normal, single 100 mg oral dose): 132.6 mosmol/kg
Urine osmolality Change from baseline Mean ([2]; 2 to 4 hours postdose, ESRD): −108.7 mosmol/kg
Urine osmolality Observed Mean ([2]; 2 to 4 hours postdose, ESRD): 202.4 mosmol/kg
Urine osmolality Change from baseline Mean ([2]; 2 to 4 hours postdose, Normal): −412.6 mosmol/kg
Urine osmolality Observed Mean ([2]; 2 to 4 hours postdose, Normal): 109.9 mosmol/kg
Urine osmolality Change from baseline Mean ([2]; 4 to 8 hours postdose, ESRD): −118.3 mosmol/kg
Urine osmolality Observed Mean ([2]; 4 to 8 hours postdose, ESRD): 195.1 mosmol/kg
Urine osmolality Change from baseline Mean ([2]; 4 to 8 hours postdose, Normal): −258.3 mosmol/kg
Urine osmolality Observed Mean ([2]; 4 to 8 hours postdose, Normal): 272.8 mosmol/kg
effect on change from baseline in urine osmolality ([2]; ESRD group): markedly reduced
Urine osmolality Observed Mean ([2]; Predose, ESRD): 311.1 mosmol/kg
Urine osmolality Observed Mean ([2]; Predose, Normal): 514.7 mosmol/kg
vasopressin levels ([2]; both renal function groups): elevations of vasopressin levels
urine output ([2]; normal group): increased urine output
maintenance of urine osmolality below 300 mOsm/kg ([3]; 300 mg to 800 mg doses (FIG. 3)): up to 12 hours
suppression of Uosm to values <300 mOsm/kg ([3]; 800 mg dose only): up to 24 hours
time Uosm remained below iso-osmolar point ([3]; 100-mg dose): 4 h
time of minimal values of Uosm after drug administration ([3]; across all dose groups): ≤ 2 h
serum osmolality ([3]; all subjects given lixivaptan): significant dose-related increases
safety and tolerability ([3]; daily oral doses up to 800 mg, twice daily up to 400 mg, 14 consecutive days, healthy men): safe and well tolerated
minimal values of Uosm ([3]; doses of 25 mg and higher): < 300 mOsm/L
urine output, 0-to-24-hour collection interval ([3]; doses of 200 mg or larger, across 14 days, vs placebo): significantly greater urine output than placebo
urine output, first 4 hours after drug administration ([3]; single dose of 25 mg or higher, vs placebo): significantly greater urine output than placebo
Uvol (0-to-4-hours) ([3]; single doses of 25 mg and higher (day 1)): doubling
